Where no end group is shown, it is not given here.
Legend:
GLP-1 receptor [1] = molecular target: T1, GLP-1 receptor (Rattus norvegicus, UniProt P32301); assay: Competitive binding of peptide to the GLP-1 receptor in RINm5F cell plasma membranes (125I GLP-1); details: read-out: GLP1 RIN IC50
T1 construct: endogenous in cells; host or cells: RINm5F cells
T1 sequence (P32301 22-463): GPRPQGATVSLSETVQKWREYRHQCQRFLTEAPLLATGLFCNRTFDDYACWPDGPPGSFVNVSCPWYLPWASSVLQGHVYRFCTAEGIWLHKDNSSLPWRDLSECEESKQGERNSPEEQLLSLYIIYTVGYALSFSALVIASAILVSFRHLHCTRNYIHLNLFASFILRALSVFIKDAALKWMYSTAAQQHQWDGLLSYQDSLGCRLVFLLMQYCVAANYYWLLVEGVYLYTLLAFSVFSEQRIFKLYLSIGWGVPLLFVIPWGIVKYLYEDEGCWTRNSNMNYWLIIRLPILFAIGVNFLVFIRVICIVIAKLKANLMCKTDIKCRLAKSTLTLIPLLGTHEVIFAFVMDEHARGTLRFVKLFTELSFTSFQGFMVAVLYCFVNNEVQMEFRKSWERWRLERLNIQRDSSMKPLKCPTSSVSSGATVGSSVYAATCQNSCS
Experimental: Flasks of RINm5F cells were washed with PBS, scraped in 20 mM Hepes-1 mM EDTA-250 mM sucrose buffer containing protease inhibitors (HES) and homogenized in a dounce homogenizer followed by repeated resuspension through a 23 gauge needle. Unbroken cells and nuclei were removed by centrifugation at 500×g for 5 minutes. The pellet was resuspended in HES buffer using a 23 gauge needle and the centrifugation was repeated. The supernatants from the two spins were combined and centrifuged at 40,000×g for 20 min. The resulting plasma membrane pellet was resuspended in HES buffer using a 23 gauge needle followed by a 25 gauge needle. Membranes were stored at −80° C. until use.
(§1) Competitive binding of some polypeptides of the invention to RINm5F cell plasma membranes was measured as follows. Ninety-six-well GF/C filtration plates (Millipore, Bedford, Mass.) were blocked with 0.3% PEI for at least one hour and washed twice with binding buffer consisting of 20 mM Tris, 2 mM EDTA, pH 7.5, 1 mg/ml BSA, and 1 mg/ml bacitracin. […] The plates were dried, scintillant was added to each well, and cpm per well determined using a Wallac Microbeta counter.

[2] = system: glucagon-mediated elevation in blood glucose; assay: Glucagon-stimulated glucose production in fed Wistar rats; format: in vivo, rat; details: iv, 0.3 nmol/kg glucagon plus 1 nmol/kg peptide
GLP-1 receptor [3] = molecular target: T1, GLP-1 receptor; assay: Peptide signaling through GLP-1 receptor, cAMP scintillation proximity assay in RINm5F cells; format: cell-based; details: for GLP1 Relative Potency: EC50 of native GLP-1 (7-36) divided by EC50 of polypeptide x 100, cAMP in RINm5F cells
Experimental: The media was removed and the cells were washed twice with PBS. […] For assay of peptides conjugated with fatty acid, the BSA was omitted from the incubation buffer. The incubation buffer was removed, and the cells were lysed in the lysis reagent provided with the cAMP Scintillation Proximity Assay (SPA) direct screening assay system (Amersham Pharmacia Biotech Inc, Piscataway, N.J.). The amount of cAMP (in pmol) present in the lysates was determined following instructions provided with this kit.
The amount of cAMP (in pmol) produced at each concentration of peptide was plotted and analyzed by nonlinear regression using Prizm software to determine the EC50 for each peptide.

rat hepatocytes = assay: Glucose release from rat hepatocytes (inhibition of glucagon mediated glucose production); format: cell-based; details: 1 nM glucagon, 100 nM peptide, 3 trials
Experimental: Hepatocytes were isolated according to a modified procedure of Berry and Friend (J. Cell. Biol. 43:506, 1969). A fed male Wistar rat was anesthetized with sodium pentobarbital (55 mg/kg, i.p.). The rat was placed on its back on the tray of the liver perfusion apparatus (37° C.), and its limbs were secured with laboratory tape. The ventrical surface was cleaned with 70% alcohol, and the abdominal cavity was opened with scissors to expose the liver, portal vein, hepatic artery and the posterior vena cava. Ligatures were placed loosely around the three vessels. A cannula was inserted into the portal vein and was secured with the ligature. […] An aliquot of cells was diluted with buffer, stained with 0.4% Trypan Blue and counted. […]
Rat hepatocytes were added into a flat bottom 96 well plate (2×10^5/100 μl/well) and pre-incubated in a 37° C. incubator with constant shaking and under 95% O2/5% CO2 flow for 10 minutes. […] The resulting supernatant was analyzed for glucose with hexokinase and glucose-6-phosphate dehydrogenase (Methods of Enzymatic Analysis, H. U. Bermeyer, Ed., Academic Press) and the A340 read on a fMAX plate reader (Molecular Devices, Sunnyvale, Calif.).
Glucose output was calculated after subtracting the amount of glucose produced in the unstimulated hepatocytes from each data point and the percent inhibition was calculated.

glucagon receptor = molecular target: T2, glucagon receptor (Rattus norvegicus, UniProt P30082); assay: Competitive binding of peptide to the glucagon receptor in rat liver plasma membranes (125I glucagon)
T2 construct: glucagon receptor present in the plasma membranes isolated from rat liver; from tissue; host or cells: rat liver plasma membranes
T2 sequence (P30082 27-485): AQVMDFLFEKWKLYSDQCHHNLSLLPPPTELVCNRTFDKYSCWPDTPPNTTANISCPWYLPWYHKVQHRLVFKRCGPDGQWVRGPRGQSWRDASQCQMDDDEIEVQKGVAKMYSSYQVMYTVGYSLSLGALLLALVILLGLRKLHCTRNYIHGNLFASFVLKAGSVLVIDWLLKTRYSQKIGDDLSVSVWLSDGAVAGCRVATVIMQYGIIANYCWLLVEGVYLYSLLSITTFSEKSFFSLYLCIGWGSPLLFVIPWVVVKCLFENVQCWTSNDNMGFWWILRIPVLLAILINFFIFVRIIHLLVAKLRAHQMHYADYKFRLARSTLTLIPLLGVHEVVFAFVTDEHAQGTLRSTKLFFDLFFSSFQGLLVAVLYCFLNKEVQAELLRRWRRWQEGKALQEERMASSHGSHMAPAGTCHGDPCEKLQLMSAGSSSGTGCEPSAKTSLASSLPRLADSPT
Experimental: The wet weight of the livers was determined and the tissue minced in 5 volumes of ice cold TES buffer and a slurry prepared using a polytron. All buffers and spins were kept at 4° C. The slurry was further homogenized using three strokes of a handheld dounce homogenizer. The homogenate was passed through several layers of cheesecloth and spun at 25,000×g for 10 minutes. Pellets were homogenized in 22.1 ml TES buffer using 10 strokes of a handheld dounce homogenizer. Twenty-seven point nine milliliters of 2.4 M sucrose in TE was added and mixed well. The homogenate was distributed among several tubes, and each tube was overlaid with 7 ml of TES buffer. The tubes were spun at 120,000×g for 60 minutes. The plasma membranes were removed from the interface that formed during the spin, diluted in TES and concentrated using a 15 minute spin at 200,000×g. The resulting pellet was again homogenized in 9.8 ml TES buffer, combined with 10.3 ml 2.4M sucrose, overlaid with 7 ml TES, and centrifuged at 180,000×g for 30 min. […] The final pellet was resuspended in TES. Plasma membranes were stored at −80° C. until ready for use.
as §1, with “rat liver” for “RINm5F cell”, “0.1%” for “0.3%”

perfused rat islets = assay: Insulin secretion by perfused rat islets; format: cell-based; details: 50 nM peptide, 8 mM glucose
Experimental: Sprague Dawley rats (275-320 g) were used as the source of donor islets. Briefly, the pancreas was filled with 10 ml of cold reconstituted Liberase RI (Boehringer Manheim), harvested and incubated with additional 5 ml enzyme solution in water bath for 30 minutes. Tissue suspension was washed twice with cold 10% FBS/Hanks buffer (Gibco), resuspended in 8 ml 25% ficoll (Sigma) and then layered with 5 ml each of 23%, 20% and 11% ficoll. The islets in the 20% layer after centrifugation were removed, washed twice with cold 10% FBS/Hank buffer and resuspended in 10% FBS/RPMI 1640 media (Sigma).
Insulin secretion of perfused rat islets mediated by some peptides of the invention was measured as follows. The bi-phasic responses of insulin release stimulated by these polypeptides were tested by islet perfusion. Fifty islets were loaded in the perifusion chamber and perifused with HEPES-KRB containing 3 mM glucose at 37° C. After 60 min, islets were exposed to buffer containing 8 mM glucose with or without peptide (50 nM) and perifused for another 30 min. Fractions of perifusate were collected at 1 or 5 minute intervals for insulin determination. Insulin was measured using an ELISA kit (Alpco Diagnostics, Windham, N.H.).

[4] = system: glucagon-mediated elevation in blood glucose; assay: Glucagon-stimulated glucose production in fed Balb/C mice; format: in vivo
[5] = system: dispersed rat islet cells; assay: Insulin secretion from dispersed rat islet cells; format: cell-based; details: 50 nM peptide, fold over control
Experimental: Insulin secretion of dispersed rat islets mediated by a number of peptides of the invention was measured as follows. Islets of Langerhans were isolated from SD rats (200-250 g) through a digestion procedure using collagenase. Dispersed islet cells were prepared through treatment with trypsin, seeded into 96 V-bottom plates and pelleted. Cells were cultured overnight in media. Media was aspirated and the cells were pre-incubated with Krebs-Ringer-HEPES buffer containing 3 mM glucose for 30 minutes at 37° C. Pre-incubation buffer was removed and cells were stimulated with Krebs-Ringer-HEPES buffer containing the appropriate glucose concentration (e.g., 8 mM), with and without peptides for an appropriate time at 37° C. […] A portion of supernatant was removed and its insulin content was measured by SPA. The results are expressed as fold over control (FOC). At a concentration of 50 nM, the polypeptide having an amino acid sequence shown in SEQ ID NO:27 increased insulin secretion from dispersed islet cells approximately 3-fold.

[6] = Intraperitoneal glucose tolerance testing (IPGTT) in rats or mice; format: in vivo; details: ipGTT in mice 3 hours post dosing with 100 μg/kg peptide
Experimental: Blood glucose levels during intraperitoneal glucose tolerance testing in rats or mice by some polypeptides of the invention were measured as follows. The in vivo activity of the polypeptides of the invention when administered subcutaneously was examined in rats or mice. Rats or mice fasted overnight were given a subcutaneous injection of control or peptide (100 μg/kg). Basal blood glucose was measured prior to administration of peptides or three or 17 hours after administration of derivatized peptides, and the rats or mice were given 2 g/kg of glucose intraperitoneally. Blood glucose was measured again after 15, 30 and 60 minutes in rats or 30 and 60 minutes in mice.

IC50 (GLP-1 receptor [1]) [nM]	GLP1 Relative Potency (GLP-1 receptor [3]) [%]	Emax (GLP-1 receptor [3]; RIN-m5F, read-out: % GLP1 max) [%]	IC50 (glucagon receptor) [nM]	% GLP1 max (GLP-1 receptor [3]; maximal cAMP activity relative to native GLP-1 (7-36), RINm5F cells) [%]	Substance	Inhibition of glucagon-mediated elevation in blood glucose (dAUC) [2] [%]	Inhibition of glucagon mediated glucose production (rat hepatocytes) [%]	Increase of insulin secretion from perfused islets (perfused rat islets)	% Inhibition ([4]; Balb/C mice, 10 μg/kg glucagon, 100 μg/kg peptide sc 17 h before) [%]	Glucose 15 min ([4]; Balb/C mice, 15 min after 10 μg/kg iv glucagon) [mg/dL]	Glucose Delta (15 − 0) ([4]; Balb/C mice, change over 15 min after glucagon) [mg/dL]	Glucose -Vehicle delta ([4]; Balb/C mice, delta minus vehicle group delta) [mg/dL]	% of 10 μg/kg Glucagon ([4]; Balb/C mice, glucose change relative to glucagon alone) [%]	Glucose 0 min ([4]; Balb/C mice, just prior to 10 μg/kg iv glucagon, peptide 100 μg/kg sc 17 h before) [mg/dL]	In vivo % Decrease glucagon stimulated blood glucose ([4]; glucagon challenge in mice 17 hours post dosing with 100 μg/kg peptide) [%]	Increase of insulin secretion from dispersed islet cells [5]	In vivo Decrease IpGTT AUC [6] [%]
2.2	13.4	98.1	69.3		HSQGTFTSDYAKYLDARRAKEFIAWLVKGR-NH2 [G27]	63	47	approximately 2 fold									
	0.7			98.3	HSQGTFTSDYARYLDARRAREFIKWLVRGRC(43kD) (HSQGTFTSDYARYLDARRAREFIKWLVRGRC(PEG 43kD); listed as Homo sapiens) [G4185, 43kD PEG linked to the cysteine residue]				31	150	75	59	69	75	31	approximately 3 fold	36
